How the values were obtained:
Format in all cases: cell-based
AA prostate cancer cells = assay: FLIRR vs intensity-based redox ratio, CoCl2 pretreatment and glucose stimulation
PCa cells [1] = assay: FLIRR (NAD(P)H-a2%/FAD-a1%) by FLIM after doxorubicin treatment; conditions: as early as 15 mins of treatment, real time, before induction of apoptosis
Source text: The enzyme-bound fractions of NAD (P) H (a2%) and FAD (a1%) and their lifetimes (tm) are used to quantify these metabolic changes, in particular with our novel NAD (P) H-a2%/FAD-a1% FLIM-based redox ratio. The commonly used intensity-based redox ratio [NAD (P) H/FAD], based predominantly on signals driven by mitochondrial OXPHOS is defined as a reduction of this ratio, due to the conversion of fluorescent NAD (P) H to non-fluorescent NAD+ and conversion of non-fluorescent FADH2 to fluorescent FAD. […]
FLIM instrumentation can include a 3-channel FLIM imaging system of a Zeiss LSM 780 confocal/multiphoton (MP) laser scanning system coupled to the Zeiss inverted epi-fluorescence microscope, which is controlled with the ZEN software (Carl Zeiss, Inc). […] The fluorescence decay per pixel was measured using 3-channel SPC-150 TCSPC board (Becker & Hickl, GmbH) where the SPCM software was used to acquire the FLIM data (v. 8.91). […]
The ratio of the bound NAD (P) H to bound FAD, the Fluorescence Lifetime Imaging Redox Ratio (FLIRR), is an optical biomarker to determine a cell's primary metabolic pathway with higher FLIRR values often consistent with a shift towards oxidative phosphorylation and lower values often associated with a shift towards glycolysis.

PCa cells [2] = assay: Trp-NAD(P)H FRET interaction by FLIM-FRET after doxorubicin treatment; conditions: as early as 15 mins of treatment, real time, before induction of apoptosis
Source text: Auto-fluorescent biomarker, tryptophan (Trp), has also been linked to cancer investigations. Trp, an essential amino acid, is a precursor of niacin, which in turn is a precursor of NAD (P) H. Increased Trp catabolismand increased indoleamine 2,3-dioxygenase (IDO) activity in the kynurenine pathway are linked to cancer development and progression. Therefore, probing Trp is clinically relevant. In general, Trp fluorescence intensity and lifetime mainly provide information on the protein composition, protein structure of which they are a part of and changes in overall cellular microenvironment. Trp is therefore used as a marker for protein abundance. […] In FLIM-FRET measurements, FRET events are identified if there is reduction in the donor lifetime, because of quenching of its fluorescence in the presence of the acceptor. […] The efficiency of energy transfer or E % is calculated from the following equation E=1-τm/τ0, where τm is the mean lifetime of Trp in cells and τ0=3.1 ns of unquenched Trp lifetime measured from Trp in solution. […]
FLIM instrumentation can include a 3-channel FLIM imaging system of a Zeiss LSM 780 confocal/multiphoton (MP) laser scanning system coupled to the Zeiss inverted epi-fluorescence microscope, which is controlled with the ZEN software (Carl Zeiss, Inc). […]

Row | Structure (SMILES) | NADH-a2%/FAD-a1% ratio (AA prostate cancer cells) | FLIRR of metabolic co-enzymes NAD(P)H & FAD (PCa cells [1]) | Trp-NAD(P)H FRET interactions (PCa cells [2])
1 | [Cl-].[Cl-].[Co+2] [CoCl2] | decrease | – | –
2 | COc1cccc2c1C(=O)c1c(O)c3c(c(O)c1C2=O)C[C@@](O)(C(=O)CO)C[C@@H]3O[C@H]1C[C@H](N)[C@H](O)[C@H](C)O1 [doxorubicin] | – | increase | increase

From patent publication US20240353393A1, “LABEL FREE DRUG AND TISSUE BIOPSY SCREENING/DIAGNOSTIC IN CANCER” (University of Virginia Patent Foundation, priority 2023, published 2024)
